Patent publication US12037344B2, “NLRP3 modulators” (INNATE TUMOR IMMUNITY, INC., priority 2018, dated 2024)
pEC50: −log10 of the molar value. Read-outs that look alike come from different tables or passages of the source.

How the values were obtained:
THP-1 cells = test: Measurement of IL-1β production, hTRF protocol (second alternative procedure), THP-1 cells; format: cell-based, human; details: Homo sapiens, THP-1, IL-1β production, read-out: NLRP3 hILIB EC50
Outline: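 THP-1 cells differentiated overnight with 50 ng/ml PMA, then plated at 50,000 cells/well in RPMI with 2% FBS onto serial compound dilutions (top final concentration 10 μM) for 2 hours at 37° C. Supernatant IL-1β measured by hTRF (antibodies at 1:40, overnight at 4° C), read at 665/615 nm against a standard curve.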

TLR7 = biological target: T1, TLR7 (Homo sapiens, UniProt Q9NYK1); test: In vitro human TLR7 binding reporter assay (HEK-Blue, NF-kB/AP1-inducible SEAP); format: cell-based; details: read-out: TLR7 Agonist EC50
T1 construct: human HEK-Blue cells co-expressing a TLR7 or TLR8 gene
T1 sequence (Q9NYK1 27-1049): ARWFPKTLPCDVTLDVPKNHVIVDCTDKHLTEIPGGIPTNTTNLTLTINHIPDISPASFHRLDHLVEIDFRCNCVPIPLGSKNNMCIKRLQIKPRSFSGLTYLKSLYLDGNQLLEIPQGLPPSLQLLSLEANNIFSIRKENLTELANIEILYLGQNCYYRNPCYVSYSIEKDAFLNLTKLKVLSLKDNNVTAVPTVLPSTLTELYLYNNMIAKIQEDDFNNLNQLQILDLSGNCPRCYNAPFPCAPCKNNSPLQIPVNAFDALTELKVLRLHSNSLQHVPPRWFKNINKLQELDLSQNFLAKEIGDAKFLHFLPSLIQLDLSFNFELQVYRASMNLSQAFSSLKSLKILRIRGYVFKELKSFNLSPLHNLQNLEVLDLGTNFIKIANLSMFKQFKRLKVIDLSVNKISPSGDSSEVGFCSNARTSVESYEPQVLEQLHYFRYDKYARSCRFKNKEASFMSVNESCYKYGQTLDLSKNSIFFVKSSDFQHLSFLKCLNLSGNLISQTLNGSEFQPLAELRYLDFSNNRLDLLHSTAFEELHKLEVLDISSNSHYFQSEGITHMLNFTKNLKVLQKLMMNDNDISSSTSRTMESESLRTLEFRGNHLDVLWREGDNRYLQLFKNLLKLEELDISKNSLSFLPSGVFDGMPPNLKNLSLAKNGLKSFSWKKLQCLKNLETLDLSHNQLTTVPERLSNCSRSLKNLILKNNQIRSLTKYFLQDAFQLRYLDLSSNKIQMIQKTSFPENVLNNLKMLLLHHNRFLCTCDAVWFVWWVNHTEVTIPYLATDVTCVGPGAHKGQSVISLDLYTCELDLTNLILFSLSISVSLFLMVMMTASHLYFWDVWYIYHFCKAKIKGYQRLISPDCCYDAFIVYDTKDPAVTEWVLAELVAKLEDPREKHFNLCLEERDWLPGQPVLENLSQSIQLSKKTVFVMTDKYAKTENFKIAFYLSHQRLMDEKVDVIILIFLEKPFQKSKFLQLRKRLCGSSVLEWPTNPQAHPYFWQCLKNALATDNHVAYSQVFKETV
Outline: (§1)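 EC50s come from NF-kB/AP1-driven SEAP secretion in HEK-Blue cells expressing TLR7 or TLR8, measured with Quanti-Blue after an 18 h compound incubation. Maximal response is defined by a 50 μM reference standard.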

TLR8 = biological target: T2, TLR8 (Homo sapiens, UniProt Q9NR97); test: In vitro human TLR8 binding reporter assay (HEK-Blue, NF-kB/AP1-inducible SEAP); format: cell-based; details: read-out: TLR8 Agonist EC50
T2 construct: human HEK-Blue cells co-expressing a TLR7 or TLR8 gene
T2 sequence (Q9NR97 27-1041): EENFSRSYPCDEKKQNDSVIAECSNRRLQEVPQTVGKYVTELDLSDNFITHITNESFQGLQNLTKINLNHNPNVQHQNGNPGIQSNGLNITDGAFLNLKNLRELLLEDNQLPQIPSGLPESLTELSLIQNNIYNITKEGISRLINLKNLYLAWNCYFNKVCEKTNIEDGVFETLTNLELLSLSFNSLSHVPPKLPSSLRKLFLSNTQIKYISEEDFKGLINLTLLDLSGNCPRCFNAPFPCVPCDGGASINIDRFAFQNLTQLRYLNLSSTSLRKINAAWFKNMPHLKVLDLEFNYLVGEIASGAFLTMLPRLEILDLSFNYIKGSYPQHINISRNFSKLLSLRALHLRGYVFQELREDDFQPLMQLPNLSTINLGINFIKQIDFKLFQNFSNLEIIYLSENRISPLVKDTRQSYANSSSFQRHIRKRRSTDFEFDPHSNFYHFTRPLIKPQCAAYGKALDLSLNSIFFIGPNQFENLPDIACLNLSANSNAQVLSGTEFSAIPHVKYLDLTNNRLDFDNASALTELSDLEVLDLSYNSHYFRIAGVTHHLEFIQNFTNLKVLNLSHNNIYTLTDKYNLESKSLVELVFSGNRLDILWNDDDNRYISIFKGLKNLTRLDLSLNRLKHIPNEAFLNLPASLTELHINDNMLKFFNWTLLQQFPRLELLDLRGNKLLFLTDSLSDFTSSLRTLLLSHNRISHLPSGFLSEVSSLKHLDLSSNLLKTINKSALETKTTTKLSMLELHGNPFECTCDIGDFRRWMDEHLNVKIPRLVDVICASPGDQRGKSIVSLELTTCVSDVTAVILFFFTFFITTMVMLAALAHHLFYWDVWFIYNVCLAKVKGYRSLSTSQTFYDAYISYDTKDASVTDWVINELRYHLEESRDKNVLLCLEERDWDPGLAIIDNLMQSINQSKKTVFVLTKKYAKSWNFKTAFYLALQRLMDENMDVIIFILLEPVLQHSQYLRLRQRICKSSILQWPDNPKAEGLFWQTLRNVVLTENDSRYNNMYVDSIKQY
Outline: as §1

| SMILES | pEC50 (THP-1 cells; human cells) | pEC50 (TLR7; activity range) | pEC50 (TLR8; activity range) | pEC50 (THP-1 cells; human) | pEC50 (TLR7; activity range class) | pEC50 (TLR8; activity range class) |
| --- | --- | --- | --- | --- | --- | --- |
| CCn1c(CN(C)C)cc2c(N)nc3cc(-c4ccn[nH]4)ccc3c21 [Example 444] | 6.59 | < 4.00 | < 4.00 |  |  |  |
| COC1CCN(CCn2cc3c(N)nc4cc(-c5ccn[nH]5)ccc4c3n2)C1 (stereo not drawn) [Example 266] |  |  |  | 5.58 | < 4.00 | < 4.00 |
| Cc1nnc(Cn2ncc3c(N)nc4cc(-c5cc[nH]n5)ccc4c32)o1 [Example 244] |  |  |  | 5.74 | < 4.00 | < 4.00 |
| Nc1nc2cc(-c3cc[nH]n3)ccc2c2nn([C@H]3CC[C@H](O)CC3)cc12 [Example 393] |  |  |  | 5.76 | < 4.00 | < 4.00 |
| Cc1nc(C(=O)NCCn2cc3c(N)nc4cc(-c5cc[nH]n5)ccc4c3n2)co1 [Example 198] |  |  |  | 6.96 | < 4.00 | < 4.00 |
| Nc1nc2cc(-c3cc[nH]n3)ccc2c2nn(CCF)cc12 [Example 321] |  |  |  | 6.72 | < 4.00 | < 4.00 |
| Nc1nc2cc(-c3cc[nH]n3)ccc2c2nn(CC3CCCO3)cc12 (stereo not drawn) [Example 229] |  |  |  | 7.10 | < 4.00 | < 4.00 |
| Nc1nc2cc(-c3ccn[nH]3)ccc2c2sc(CCNC(=O)c3ccccc3)nc12 [Example 135, N-(2-(4-amino-7-(1H-pyrazol-5-yl)thiazolo[4,5-c]quinolin-2-yl)ethyl) benzamide] |  |  |  | 6.01 | < 4.00 | < 4.00 |
| Nc1nc2cc(-c3cc[nH]n3)ccc2c2cn(CCNC(=O)c3coc(Cl)n3)nc12 [Example 176] |  |  |  | 7.30 | 4.00 to 4.70 | 4.00 to 4.70 |
| CNC(=O)C(C)n1cc2c(N)nc3cc(-c4ccn[nH]4)ccc3c2n1 (stereo not drawn) [Example 560] | 6.44 | < 4.00 | < 4.00 |  |  |  |
| Nc1nc2cc(-c3cc[nH]n3)ccc2c2cn(CCNCc3cccc(F)c3)nc12 [Example 106] |  |  |  | 5.72 | 4.00 to 4.70 | 4.00 to 4.70 |
| COCCn1cc2c(N)nc3cc(-c4cc[nH]n4)ccc3c2n1 [Example 207, 2-(2-methoxyethyl)-7-(1H-pyrazol-3-yl)-2H-pyrazolo[4,3-c]quinolin-4-amine] |  |  |  | 6.85 | < 4.00 | < 4.00 |
| Nc1nc2cc(-c3cc[nH]n3)ccc2c2nn(C[C@@H]3CCCO3)cc12 [Example 330] |  |  |  | 6.77 | < 4.00 | < 4.00 |
| CC(=O)N1CCCC1Cn1cc2c(N)nc3cc(-c4ccn[nH]4)ccc3c2n1 (stereo not drawn) [Example 258] |  |  |  | 5.75 | < 4.00 | < 4.00 |
| Nc1nc2cc(-c3cc[nH]n3)ccc2c2[nH]c(CN3CC4(CCOC4)C3)cc12 [Example 492] | 6.12 | < 4.00 | < 4.00 |  |  |  |
| Nc1nc2cc(-c3cc[nH]n3)ccc2c2nn(CC(F)F)cc12 [Example 224] |  |  |  | 6.85 | < 4.00 | < 4.00 |
| CC(C)(C)OC(=O)Nc1nc(C(=O)NCCn2cc3c(n2)c(N)nc2cc(-c4cc[nH]n4)ccc23)cs1 [Example 80] |  |  |  | 5.68 | < 4.00 | 4.00 to 4.70 |
| CCNCCn1cc2c(N)nc3cc(-c4ccn[nH]4)ccc3c2n1 [Example 279] |  |  |  | 5.95 | < 4.00 | < 4.00 |
| Nc1nc2cc(-c3cc[nH]n3)ccc2c2nn(C[C@@H](O)CO)cc12 [Example 365] |  |  |  | 5.73 | < 4.00 | < 4.00 |
| Cc1nc(Cn2cc3c(n2)c(N)nc2cc(-c4cc[nH]n4)ccc23)no1 [Example 174] |  |  |  | 6.64 | 4.70 to 6.00 | 4.00 to 4.70 |
| CC1(O)CCCC1n1cc2c(N)nc3cc(-c4cc[nH]n4)ccc3c2n1 (stereo not drawn) [Example 343] |  |  |  | 6.21 | < 4.00 | < 4.00 |
| NCCCc1nc2c(N)nc3cc(-c4ccn[nH]4)ccc3c2s1 [Example 138] |  |  |  | 5.41 | < 4.00 | < 4.00 |
| CC(Cn1cc2c(N)nc3cc(-c4ccn[nH]4)ccc3c2n1)NC(=O)C(C)(C)C#N (stereo not drawn) [Example 270] |  |  |  | 5.29 | < 4.00 | < 4.00 |
| NC(=O)Cn1cc2c(n1)c(N)nc1cc(-c3ccn[nH]3)ccc12 [Example 541] | 6.19 | < 4.00 | < 4.00 |  |  |  |
| Nc1nc2cc(-n3cccn3)ccc2c2cn(CC3CCCCO3)nc12 (stereo not drawn) [Example 18] |  |  |  | 5.95 | 4.00 to 4.70 | < 4.00 |
| CN(C)C(=O)C1(Cn2cc3c(N)nc4cc(-c5ccn[nH]5)ccc4c3n2)CC1 [Example 600] | 5.40 | < 4.00 | < 4.00 |  |  |  |
| Nc1nc2cc(-c3cc[nH]n3)ccc2c2[nH]c(CCNC(=O)c3cccc(O)n3)cc12 [Example 519] | 5.68 | < 4.00 | < 4.00 |  |  |  |
| COC1CCC(n2cc3c(N)nc4cc(-c5cc[nH]n5)ccc4c3n2)C1 (stereo not drawn) [Example 246] |  |  |  | 6.24 | < 4.00 | < 4.00 |
| CS(=O)(=O)CCCn1ncc2c(N)nc3cc(-c4cc[nH]n4)ccc3c21 [Example 212] |  |  |  | 5.36 | < 4.00 | < 4.00 |
